Reference: paper PMC7725003, “Systematically Studying the Optimal Amino Acid Distribution Patterns of the Amphiphilic Structure by Using the Ultrashort Amphiphiles” (Frontiers in Microbiology, 2020)
Where no end group is shown, it is not given here.

Assays:
E. coli 25922 = format: cell-based, Escherichia coli; details: 25922, 24 h
Outline: (§1)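 Inoculum: mid-log phase, MHB, 0.5–1 × 10^6 CFU mL^–1. Peptides: serial dilution in 0.2% BSA, equal volume. Incubation: 24 h, 37°C. Read-out: A492, MIC at 95% inhibition; MBC >99.9% kill after agar subculture.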

E. coli O78 = format: cell-based, Escherichia coli; details: O78, 24 h
Outline: as §1

E. coli UB1005 = format: cell-based, Escherichia coli; details: UB1005, 24 h
Outline: as §1

S. typhimurium 14028 = format: cell-based, Salmonella typhimurium; details: 14028, 24 h
Outline: as §1

S. typhimurium 7731 = format: cell-based, Salmonella typhimurium; details: 7731, 24 h
Outline: as §1

S. pullorum 7913 = format: cell-based, Salmonella pullorum; details: 7913, 24 h
Outline: as §1

P. aeruginosa 27853 = format: cell-based, Pseudomonas aeruginosa; details: 27853, 24 h
Outline: as §1

E. coli K88 = details: for MIC: MHB, 24 h 37°C, 95% growth inhibition; for MBC: value in brackets, >99.9% of cells killed
Protocol: (§2) The antimicrobial activities of the peptides were measured using a method adapted from the National Committee for Clinical Laboratory Standards (NCCLS) with some modifications ([Chou et al., 2016]). The specific procedure for these assays has been previously described. In brief, the bacterial cells were grown to a mid-logarithmic phase and diluted in MHB to an ultimate concentration of 0.5–1 × 10^6 CFU mL^–1. Subsequently, the peptides were consecutively diluted in a 0.2% BSA solution and then added to a bacterial solution in a 96-well plate at identical volumes. After incubation for 24 h at 37°C, the MICs were determined to be the lowest peptide concentration that inhibited 95% of the bacterial growth by monitoring the absorbance at 492 nm using a microplate reader. Subsequently, 50 μL of each incubation mixture was further transferred to agar plates and incubated overnight. […] Every assay was reproduced more than 3 times.

E. coli K99 = details: for MIC: MHB, 24 h 37°C, 95% growth inhibition; for MBC: value in brackets, >99.9% of cells killed
Protocol: as §2

Gram-negative bacteria [1] = details: for GM MIC: geometric mean of MICs, 9 Gram-negative strains (Table 2); for TI, Gram-negative bacteria: therapeutic index TI = MHC/GM MIC
Outline: (§3)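 Broth microdilution adapted from NCCLS: mid-log bacteria diluted in MHB to 0.5–1 × 10^6 CFU mL^–1, mixed with peptides serially diluted in 0.2% BSA. After 24 h at 37°C, MIC taken as the lowest concentration inhibiting 95% of growth by absorbance at 492 nm. Assays repeated more than 3 times.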

Gram-positive bacteria [2] = details: for GM MIC: geometric mean of MICs, 7 Gram-positive strains (Table 2); for TI, Gram-positive bacteria: therapeutic index TI = MHC/GM MIC
Outline: as §3

S. aureus 25923 = format: cell-based, Staphylococcus aureus; details: 25923, 24 h
Outline: as §1

S. aureus 29213 [3] = format: cell-based, Staphylococcus aureus; details: 29213, 24 h
Outline: as §1

S. epidermidis 12228 = format: cell-based, Staphylococcus epidermidis; details: 12228, 24 h
Outline: as §1

MRSA 43300 = format: cell-based, methicillin-resistant S. aureus; details: 43300, 24 h
Outline: as §1

B. subtilis 63501 = format: cell-based, Bacillus subtilis; details: 63501, 24 h
Outline: as §1

E. faecalis 29212 = format: cell-based, Enterococcus faecalis; details: 29212, 24 h
Outline: as §1

[4] = test system: Listeria monocytogenes CGMCC 1.1075; format: cell-based; details: CGMCC 1.1075, 24 h
Outline: as §1

[5] = test system: all of the tested bacterial strains; assay: Geometric mean of MICs, all tested bacterial strains; format: cell-based; details: for GM, All: geometric mean of MICs across all tested strains
Outline: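 Mid-log bacteria at 0.5–1 × 10^6 CFU mL^–1 in MHB with peptides serially diluted in 0.2% BSA, 24 h at 37°C. MIC is the lowest concentration giving 95% growth inhibition by A492. MBC is the lowest giving >99.9% kill on agar subculture, and the GM is taken over all strains.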

E. coli ATCC 25922 = assay: Salt sensitivity assay (MIC); format: cell-based, Escherichia coli; details: for MIC, FeCl3: 4 μM FeCl3; for MIC, NH4Cl: 6 μM NH4Cl; for MIC, ZnCl2: 8 μM ZnCl2; for MIC, MgCl2: 1 mM MgCl2; for MIC, CaCl2: 2 mM CaCl2; for MIC, KCl: 4.5 mM KCl; for MIC, NaCl: 150 mM NaCl; for MIC, Control: no added salt, three independent assays
Outline: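 The salt sensitivity of peptides was tested against E. coli ATCC 25922 using a modified NCCLS broth microdilution MIC method. Mid-log bacteria were diluted in MHB to 0.5–1 × 10^6 CFU mL^–1 and mixed in equal volumes with peptides serially diluted in 0.2% BSA in 96-well plates. Physiological salt was added where specified, and the assay was done three independent times.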

S. aureus 29213 [6] = assay: Salt sensitivity assay (MIC); format: cell-based, Staphylococcus aureus; details: for MIC, FeCl3: 4 μM FeCl3; for MIC, NH4Cl: 6 μM NH4Cl; for MIC, ZnCl2: 8 μM ZnCl2; for MIC, MgCl2: 1 mM MgCl2; for MIC, CaCl2: 2 mM CaCl2; for MIC, KCl: 4.5 mM KCl
Outline: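 MICs determined by broth microdilution in MHB with 0.5–1 × 10^6 CFU/mL, peptides serially diluted in 0.2% BSA, 24 h at 37°C. Medium supplemented with physiological salts (150 mM NaCl, 4.5 mM KCl, 6 μM NH4Cl, 8 μM ZnCl2, 1 mM MgCl2, 2mM CaCl2, 4 μM FeCl3). MIC = lowest concentration inhibiting 95% growth (A492).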

Gram-negative bacteria [7] = details: geometric mean of MBCs, 9 Gram-negative strains (Table 2)
Gram-positive bacteria [8] = details: geometric mean of MBCs, 7 Gram-positive strains (Table 2)

RRLLLRLRL-NH2 [L8]
14.81: TI, Gram-negative bacteria (Gram-negative bacteria [1])
17.28 µM: GM MIC (Gram-negative bacteria [1])
64 µM: MBC (E. coli UB1005) | MBC (S. typhimurium 14028) | MBC (S. typhimurium 7731) | MIC (P. aeruginosa 27853) | MIC (S. aureus 25923) | MBC (S. aureus 29213 [3]) | MBC (S. epidermidis 12228) | MBC (MRSA 43300) | MIC, NaCl (E. coli ATCC 25922) | MIC, MgCl2 (S. aureus 29213 [6]) | MIC, KCl (S. aureus 29213 [6])
4 µM: MIC (E. coli K88) | MIC (B. subtilis 63501) | MIC [4]
128 µM: MBC (P. aeruginosa 27853) | MBC (S. aureus 25923)
12.88: TI, All ([5]; therapeutic index TI = MHC/GM MIC)
16 µM: MIC (E. coli 25922) | MBC (E. coli O78) | MBC (S. pullorum 7913) | MIC (E. coli K99) | MIC, FeCl3 (E. coli ATCC 25922) | MIC, Control (E. coli ATCC 25922)
> 64 µM: MIC (E. faecalis 29212) | MIC, CaCl2 (E. coli ATCC 25922) | MIC, CaCl2 (S. aureus 29213 [6])
10.77: TI, Gram-positive bacteria (Gram-positive bacteria [2])
19.87 µM: GM, All [5]
32 µM: MBC (E. coli 25922) | MIC (E. coli UB1005) | MIC (S. typhimurium 14028) | MIC (S. typhimurium 7731) | MBC (E. coli K99) | MIC (S. aureus 29213 [3]) | MIC (S. epidermidis 12228) | MIC (MRSA 43300) | MIC, MgCl2 (E. coli ATCC 25922) | MIC, KCl (E. coli ATCC 25922) | MIC, FeCl3 (S. aureus 29213 [6]) | MIC, NH4Cl (S. aureus 29213 [6]) | MIC, ZnCl2 (S. aureus 29213 [6])
43.07 µM: GM MBC (Gram-positive bacteria [8])
23.78 µM: GM MIC (Gram-positive bacteria [2])
8 µM: MIC (E. coli O78) | MIC (S. pullorum 7913) | MBC (E. coli K88) | MBC (B. subtilis 63501) | MBC [4] | MIC, NH4Cl (E. coli ATCC 25922) | MIC, ZnCl2 (E. coli ATCC 25922)
32.00 µM: GM MBC (Gram-negative bacteria [7])

LLRLLRRRL-NH2 [L1]
21.53 µM: GM MIC (Gram-positive bacteria [2])
128 µM: MBC (E. faecalis 29212)
25.40 µM: GM MBC (Gram-negative bacteria [7])
13.72 µM: GM MIC (Gram-negative bacteria [1])
8 µM: MIC (E. coli 25922) | MIC (E. coli O78) | MIC (S. pullorum 7913) | MIC (E. coli K88) | MIC (E. coli K99) | MIC, ZnCl2 (E. coli ATCC 25922) | MIC, MgCl2 (E. coli ATCC 25922) | MIC, Control (E. coli ATCC 25922)
39.01 µM: GM MBC (Gram-positive bacteria [8])
2.97: TI, Gram-positive bacteria (Gram-positive bacteria [2])
32 µM: MBC (E. coli UB1005) | MBC (S. typhimurium 14028) | MBC (S. typhimurium 7731) | MIC (S. aureus 25923) | MBC (S. aureus 29213 [3]) | MBC (S. epidermidis 12228) | MBC (MRSA 43300) | MIC, CaCl2 (E. coli ATCC 25922)
16.71 µM: GM, All [5]
2 µM: MIC (B. subtilis 63501)
64 µM: MBC (S. aureus 25923) | MIC (E. faecalis 29212) | MIC, NaCl (E. coli ATCC 25922) | MIC, NH4Cl (S. aureus 29213 [6]) | MIC, ZnCl2 (S. aureus 29213 [6]) | MIC, MgCl2 (S. aureus 29213 [6]) | MIC, KCl (S. aureus 29213 [6])
> 64 µM: MIC (P. aeruginosa 27853) | MIC [4] | MIC, FeCl3 (S. aureus 29213 [6]) | MIC, CaCl2 (S. aureus 29213 [6]) | MIC, NaCl (S. aureus 29213 [6]; 150 mM NaCl)
4 µM: MBC (B. subtilis 63501) | MIC, FeCl3 (E. coli ATCC 25922) | MIC, NH4Cl (E. coli ATCC 25922)
16 µM: MBC (E. coli 25922) | MBC (E. coli O78) | MIC (E. coli UB1005) | MIC (S. typhimurium 14028) | MIC (S. typhimurium 7731) | MBC (S. pullorum 7913) | MBC (E. coli K88) | MBC (E. coli K99) | MIC (S. aureus 29213 [3]) | MIC (S. epidermidis 12228) | MIC (MRSA 43300) | MIC, KCl (E. coli ATCC 25922)
18.66: TI, Gram-negative bacteria (Gram-negative bacteria [1])
